The values below come from patent US8143393B2, “Substituted 4-amino-pyrrolotriazine derivatives useful for treating hyper-proliferative disorders and diseases associated with angiogenesis” (Bayer HealthCare LLC, priority 2005, dated 2012).

The target of one experiment is T1, FGFR-1 (Homo sapiens, UniProt P11362).
T1 construct: GST; made in house
T1 sequence (P11362 22-822): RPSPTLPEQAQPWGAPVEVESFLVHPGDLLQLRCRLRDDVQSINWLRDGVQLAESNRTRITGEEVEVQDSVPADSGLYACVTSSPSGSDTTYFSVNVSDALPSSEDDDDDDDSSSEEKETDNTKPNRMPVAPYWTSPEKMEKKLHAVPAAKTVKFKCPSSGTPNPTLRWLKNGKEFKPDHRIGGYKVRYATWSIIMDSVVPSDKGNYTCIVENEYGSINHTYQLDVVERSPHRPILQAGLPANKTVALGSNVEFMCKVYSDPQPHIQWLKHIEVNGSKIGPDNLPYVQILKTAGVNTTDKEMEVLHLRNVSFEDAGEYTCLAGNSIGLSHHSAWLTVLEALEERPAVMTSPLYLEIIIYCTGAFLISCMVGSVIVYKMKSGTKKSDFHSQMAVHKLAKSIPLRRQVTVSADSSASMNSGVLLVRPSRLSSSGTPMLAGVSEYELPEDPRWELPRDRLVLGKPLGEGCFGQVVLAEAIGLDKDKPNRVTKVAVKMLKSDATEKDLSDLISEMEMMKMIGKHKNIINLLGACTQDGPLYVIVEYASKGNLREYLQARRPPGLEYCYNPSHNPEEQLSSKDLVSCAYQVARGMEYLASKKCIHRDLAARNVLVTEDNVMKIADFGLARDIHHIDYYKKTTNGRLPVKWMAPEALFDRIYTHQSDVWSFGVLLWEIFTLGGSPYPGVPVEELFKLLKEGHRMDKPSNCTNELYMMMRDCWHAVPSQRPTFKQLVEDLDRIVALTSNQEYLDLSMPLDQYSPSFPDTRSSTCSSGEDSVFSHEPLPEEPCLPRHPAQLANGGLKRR
In words: FGFR-1 TR-FRET biochemical assay. The conditions noted are these: 0.6 uM ATP, 5 nM FGFR1-GST; bounds given in nM. In outline:
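In this LANCE time-resolved FRET format, compounds at final 10 μM–0.128 nM (1% DMSO, 1:5 series) were preincubated before enzyme start. Reactions ran for one hour at room temperature with 0.6 uM ATP, 25 nM biotinylated poly GT and 5 nM GST-tagged FGFR1. Inhibition was calculated from the 665/615 nm ratio minus the ATP-free background.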
On the technique in general: Time-resolved FRET reads energy transfer from a long-lived donor to a nearby acceptor.
Take `Nc1ncnn2c(C3CCN(CCO)CC3)cc(-c3ccc(NC(=O)Nc4cc(C(F)(F)F)ccc4F)c(F)c3)c12` [Example 116, N-(4-4-amino-7-[1-(2-hydroxyethyl)piperidin-4-yl]pyrrolo[2,1-f][1,2,4]triazin-5-yl-2-fluorophenyl)-N′-[2-fluoro-5-(trifluoromethyl)phenyl]urea]: the IC50 (as a rule, the concentration at which inhibition is half-maximal) was under 10 nM. Still for that read-out and setting: with `Nc1ncnn2c(C3CCN(CC(=O)O)CC3)cc(-c3ccc(NC(=O)Nc4cc(C(F)(F)F)ccc4F)c(F)c3)c12` [Example 119, [4-(4-amino-5-3-fluoro-4-[([2-fluoro-5-(trifluoromethyl)-phenyl]aminocarbonyl)amino]phenylpyrrolo[2,1-f][1,2,4]triazin-7-yl)piperidin-1-yl]acetic acid] the figure was under 10 nM; with `CNC(=O)CN1CCC(c2cc(-c3ccc(NC(=O)Nc4cc(C(F)(F)F)ccc4F)c(F)c3)c3c(N)ncnn23)CC1` [Example 120, 2-[4-(4-amino-5-3-fluoro-4-[([2-fluoro-5-(trifluoromethyl)phenyl]aminocarbonyl)amino]phenylpyrrolo[2,1-f][1,2,4]triazin-7-yl)piperidin-1-yl]-N-methylacetamide], under 10 nM. In turn, `Nc1ncnn2c(C3CCN(CC(O)CO)CC3)cc(-c3ccc(NC(=O)Nc4cc(C(F)(F)F)ccc4F)c(F)c3)c12` (stereo not drawn) [Example 121, N-(4-4-amino-7-[1-(2,3-dihydroxypropyl)piperidin-4-yl]pyrrolo[2,1-f][1,2,4]triazin-5-yl-2-fluorophenyl)-N′-[2-fluoro-5-(trifluoromethyl)-phenyl]urea] showed an IC50 of under 10 nM. The molecule `CC(C)(C)NC(=O)N1CCC(c2cc(-c3ccc(NC(=O)Nc4cc(C(F)(F)F)ccn4)c(F)c3)c3c(N)ncnn23)CC1` [Example 124, 4-4-amino-5-[3-fluoro-4-([4-(trifluoromethyl)pyridin-2-yl]carbamoylamino)phenyl]pyrrolo[2,1-f][1,2,4]triazin-7-yl-N-tert-butylpiperidine-1-carboxamide] displayed an IC50 of 10 to 100 nM. Molecule `Nc1ncnn2c(CN3CCOCC3)cc(-c3ccc(NC(=O)Nc4cc(C(F)(F)F)ccc4F)c(Cl)c3)c12` [Example 128, N-4-[4-amino-7-(morpholin-4-ylmethyl)pyrrolo[2,1-f][1,2,4]triazin-5-yl]-2-chlorophenyl-N′-[2-fluoro-5-(trifluoromethyl)phenyl]urea] returned an IC50 of under 10 nM. `Nc1ncnn2c(CN3CCOCC3)cc(-c3ccc(NC(=O)Nc4cc(C(F)(F)F)ccn4)c(Cl)c3)c12` [Example 129, N-4-[4-amino-7-(morpholin-4-ylmethyl)pyrrolo[2,1-f][1,2,4]triazin-5-yl]-2-chlorophenyl-N′-[4-(trifluoromethyl)pyridin-2-yl]urea] yielded an IC50 of under 10 nM. Same read-out and setting: with `Cc1ccnc(NC(=O)Nc2ccc(-c3cc(CN4CCOCC4)n4ncnc(N)c34)cc2Cl)c1` [Example 133, N-4-[4-amino-7-(morpholin-4-ylmethyl)pyrrolo[2,1-f][1,2,4]triazin-5-yl]-2-chlorophenyl-N′-(4-methylpyridin-2-yl)urea] the figure was 10 to 100 nM; with `Cc1cc(NC(=O)Nc2cc(C(F)(F)F)ccc2F)c(F)cc1-c1cc(CN2CCOCC2)n2ncnc(N)c12` [Example 136, N-{4-[4-amino-7-(morpholin-4-ylmethyl)pyrrolo[2,1-f][1,2,4]triazin-5-yl]-2-fluoro-5-methylphenyl}-N′-[2-fluoro-5(trifluoromethyl)-phenyl]urea], 10 to 100 nM; with `Cc1ccc(F)c(NC(=O)Nc2cc(F)c(-c3cc(CN4CCOCC4)n4ncnc(N)c34)cc2F)c1` [Example 145, N-{4-[4-amino-7-(morpholin-4-ylmethyl)pyrrolo[2,1-f][1,2,4]triazin-5-yl]-2,5-difluorophenyl}-N′-(2-fluoro-5-methylphenyl)urea], 10 to 100 nM. The molecule `Cc1cc(NC(=O)Nc2cc(C(F)(F)F)ccc2Cl)c(F)cc1-c1cc(CN2CCOCC2)n2ncnc(N)c12` [Example 147, N-{4-[4-amino-7-(morpholin-4-ylmethyl)pyrrolo[2,1-f][1,2,4]triazin-5-yl]-2-fluoro-5-methylphenyl}-N′-[2-chloro-5-(trifluoromethyl)phenyl]urea] displayed an IC50 of over 100 nM. `Cc1ccc(F)c(NC(=O)Nc2ccc(-c3cc(CN4CCOCC4)n4ncnc(N)c34)cc2F)c1` [Example 149, N-{4-[4-amino-7-(morpholin-4-ylmethyl)pyrrolo[2,1-f][1,2,4]triazin-5-yl]-2-fluorophenyl}-N′-(2-fluoro-5-methylphenyl)urea] yielded an IC50 of under 10 nM. `CN1CCN(C(=O)c2cc(-c3ccc(NC(=O)Nc4cc(C(F)(F)F)ccc4F)c(F)c3)c3c(N)ncnn23)CC1` [Example 161, N-(4-{4-amino-7-[(4-methylpiperazin-1-yl)carbonyl]pyrrolo[2,1-f][1,2,4]triazin-5-yl}-2-fluorophenyl)-N′-[2-fluoro-5-(trifluoromethyl)phenyl]urea]: the IC50 was under 10 nM. Regarding `Nc1ncnn2c(CN3CCNC(=O)C3)cc(-c3ccc(NC(=O)Nc4cc(C(F)(F)F)ccn4)c(F)c3)c12` [Example 163, N-(4-{4-amino-7-[(3-oxopiperazin-1-yl)methyl]-pyrrolo [2,1-f][1,2,4]triazin-5-yl}-2-fluorophenyl)-N′-[4-(trifluoromethyl)-pyridin-2-yl]urea], the IC50 is under 10 nM.

Take `Nc1ncnn2c(CN3CCNC(=O)C3)cc(-c3cc(F)c(NC(=O)Nc4cc(C(F)(F)F)ccc4F)cc3F)c12` [Example 164, N-(4-{4-amino-7-[(3-oxopiperazin-1-yl)methyl]-pyrrolo [2,1-f][1,2,4]triazin-5-yl}-2,5-difluorophenyl)-N′-[2-fluoro-5-(trifluoromethyl)phenyl]urea]: the IC50 was under 10 nM.

`Cc1cc(-c2cc(CN3CCNC(=O)C3)n3ncnc(N)c23)ccc1NC(=O)Nc1cc(C(F)(F)F)ccc1F` [Example 165, N-(4-{4-amino-7-[(3-oxopiperazin-1-yl)methyl]-pyrrolo[2,1-f][1,2,4]triazin-5-yl}-2-methylphenyl)-N′-[2-fluoro-5-(trifluoromethyl)-phenyl]urea] registered an IC50 of under 10 nM. Still for that read-out and setting: with `Nc1ncnn2c(CN3CCCOCC3)cc(-c3ccc(NC(=O)Nc4cc(C(F)(F)F)ccc4F)cc3)c12` [Example 167, N-{4-[4-amino-7-(1,4-oxazepan-4-ylmethyl)pyrrolo[2,1-f][1,2,4]triazin-5-yl]phenyl}-N′-[2-fluoro-5-(trifluoromethyl)phenyl]urea] the figure was under 10 nM; with `Nc1ncnn2c(CN3CCCOCC3)cc(-c3cc(F)c(NC(=O)Nc4cc(C(F)(F)F)ccc4F)cc3F)c12` [Example 168, N-{4-[4-amino-7-(1,4-oxazepan-4-ylmethyl)pyrrolo[2,1-f][1,2,4]triazin-5-yl]-2,5-difluorophenyl}-N′-[2-fluoro-5-(trifluoromethyl)phenyl]urea], under 10 nM; with `Nc1ncnn2c(C3CCN(C(=O)CO)CC3)cc(-c3ccc(NC(=O)Nc4cc(C(F)(F)F)ccc4F)c(Cl)c3)c12` [Example 173, N-{4-[4-amino-7-(1-glycoloylpiperidin-4-yl)pyrrolo[2,1-f][1,2,4]triazin-5-yl]-2-chlorophenyl}-N′-[2-fluoro-5-(trifluoromethyl)phenyl]urea], under 10 nM. `Nc1ncnn2c(CN3CCCOCC3)cc(-c3ccc(NC(=O)Nc4cc(C(F)(F)F)ccn4)cc3)c12` [Example 176, N-{4-[4-amino-7-(1,4-oxazepan-4-ylmethyl)pyrrolo[2,1-f][1,2,4]triazin-5-yl]phenyl}-N′-[4-(trifluoromethyl)pyridin-2-yl]urea]: the IC50 is under 10 nM. The molecule `Nc1ncnn2c(CN3CCCOCC3)cc(-c3ccc(NC(=O)Nc4cc(C(F)(F)F)ccc4F)c(F)c3)c12` [Example 177, N-{4-[4-amino-7-(1,4-oxazepan-4-ylmethyl)pyrrolo[2,1-f][1,2,4]triazin-5-yl]-2-fluorophenyl}-N′-[2-fluoro-5-(trifluoromethyl)phenyl]urea] gave an IC50 of under 10 nM. `Nc1ncnn2c(CN3CCCOCC3)cc(-c3ccc(NC(=O)Nc4cc(C(F)(F)F)ccn4)c(F)c3)c12` [Example 179, N-{4-[4-amino-7-(1,4-oxazepan-4-ylmethyl)pyrrolo[2,1-f][1,2,4]triazin-5-yl]-2-fluorophenyl}-N′-[4-(trifluoromethyl)pyridin-2-yl]urea] registered an IC50 of under 10 nM. Still for that read-out and setting: in the case of `Cc1cc(-c2cc(CN3CCCOCC3)n3ncnc(N)c23)ccc1NC(=O)Nc1cc(C(F)(F)F)ccn1` [Example 180, 1-{4-[4-amino-7-(1,4-oxazepan-4-ylmethyl)pyrrolo[2,1-f][1,2,4]triazin-5-yl]-2-methylphenyl}-3-[4-(trifluoromethyl)pyridin-2-yl]urea] it was under 10 nM; in that of `Cc1cc(-c2cc(CN3CCCOCC3)n3ncnc(N)c23)ccc1NC(=O)Nc1cc(C(F)(F)F)ccc1F` [Example 181, N-{4-[4-amino-7-(1,4-oxazepan-4-ylmethyl)pyrrolo[2,1-f][1,2,4]triazin-5-yl]-2-methylphenyl}-N′-[2-fluoro-5-(trifluoromethyl)phenyl]urea], under 10 nM. On the same count and under the same terms, in the case of `COC[C@@H]1CCCN1CCCc1cc(-c2ccc(NC(=O)Nc3cc(C(F)(F)F)ccc3F)c(F)c2)c2c(N)ncnn12` [Example 184, N-[4-(4-amino-7-{3-[(2S)-2-(methoxymethyl)pyrrolidin-1-yl]propyl}pyrrolo[2,1-f][1,2,4]triazin-5-yl)-2-fluorophenyl]-N′-[2-fluoro-5-(trifluoromethyl)phenyl]urea] it was under 10 nM; in that of `Nc1ncnn2c(CCCN3CCCC3)cc(-c3ccc(NC(=O)Nc4cc(C(F)(F)F)ccc4F)c(F)c3)c12` [Example 186, N-{4-[4-amino-7-(3-pyrrolidin-1-ylpropyl)pyrrolo[2,1-f][1,2,4]triazin-5-yl]-2-fluorophenyl}-N′-[2-fluoro-5-(trifluoromethyl)phenyl]urea], under 10 nM.

Still in this experiment, the particulars now being: upper bound of the bin 'greater than 100 nM but less than 1 μM' (lower bound in E1).
`Cc1cc(NC(=O)Nc2cc(C(F)(F)F)ccc2Cl)c(F)cc1-c1cc(CN2CCOCC2)n2ncnc(N)c12` [Example 147, N-{4-[4-amino-7-(morpholin-4-ylmethyl)pyrrolo[2,1-f][1,2,4]triazin-5-yl]-2-fluoro-5-methylphenyl}-N′-[2-chloro-5-(trifluoromethyl)phenyl]urea]: the IC50 is under 1000 nM.
